Reference: patent EP4678750A1 (priority 2023, dated 2024)

Assays:
[1] = test system: replicon RNA transcribed from NOBEVR; assay: microbe, parasite or virus in culture; assay type: cell-based, Nobecovirus
[2] = test system: replicon RNA transcribed from HKU1; assay type: cell-based, Embecovirus
[3] = test system: replicon RNA transcribed from SC2R; assay type: cell-based, SARS-CoV-2
[4] = test system: replicon RNA transcribed from SCVR; assay type: cell-based, SARS-CoV-1
[5] = test system: replicon RNA transcribed from MERVR; assay type: cell-based, MERS-CoV
[6] = Evaluation of cytotoxicity (WST-1); details: human, HuH-7.6c cells
[7] = test system: replicon RNA transcribed from SC2R; assay: microbe, parasite or virus in culture; assay type: cell-based, SARS-CoV-2; details: Severe acute respiratory syndrome coronavirus 2, 48 h, read-out: EC50, inhibition of the replication of replicon RNA transcribed from SC2R
HCV replicon RNA = assay: HCV subgenomic replicon replication, Renilla luciferase activity; assay type: cell-based, genotype 1b HCV (1B-4 strain); details: Hepatitis C virus; 72 hours, RL activity, FIG. 15B; read-out: EC50, inhibition of the replication of HCV replicon RNA

Row | SMILES | replication of replicon RNA in NOBEVR [1] | replication of replicon RNA in HKU1 [2] | replication of replicon RNA transcribed from SC2R [3] | replication of replicon RNA transcribed from NOBEVR [1] | replication of replicon RNA transcribed from SCVR [4] | replication of replicon RNA transcribed from MERVR [5] | replication of replicon RNA transcribed from HKU1 [2] | further results
1 | CC(C)(C)[C@H](NC(=O)C(F)(F)F)C(=O)N1C[C@H]2[C@@H]([C@H]1C(=O)N[C@H](C#N)C[C@@H]1CCNC1=O)C2(C)C [PF-07321332] | did not inhibit | did not inhibit |  |  |  |  |  | 
2 | CN(C)CC[C@H](CSc1ccccc1)Nc1ccc(S(=O)(=O)NC(=O)c2ccc(N3CCN(Cc4ccccc4-c4ccc(Cl)cc4)CC3)cc2)cc1[N+](=O)[O-] [ABT-737] |  |  | inhibited | inhibited | inhibited | inhibited | inhibited | 
3 | COc1cc2c(cc1OC)[C@@H](Cc1ccc(Oc3cc(C[C@@H]4c5cc(OC)c(OC)cc5CCN4C)ccc3O)cc1)N(C)CC2 [dauricine] |  |  |  |  |  |  |  | replicon RNA replication inhibitory activity against SC2R [3]: replicon RNA replication inhibitory activity; inhibitory activity against the replication of replicon RNA transcribed from NOBEVR [1]: strong inhibitory activity
4 | CN(C)CC#Cc1ccc(OCCCc2sc(N3CCc4cccc(C(=O)Nc5nc6ccccc6s5)c4C3)nc2C(=O)O)c(F)c1 [A-1155463] |  |  | inhibited | inhibited | inhibited | inhibited | inhibited | concentration responsiveness of the replication level of SARS-CoV-2 replicon RNA [3]: inhibited the replication of replicon RNA transcribed from SC2R in a concentration-dependent manner
5 | CC(C)=CCC[C@]1(C)C=Cc2c(O)c3c(c(CC=C(C)C)c2O1)O[C@]12C(=C[C@@H]4C[C@H]1C(C)(C)O[C@@]2(C/C=C(/C)C(=O)O)C4=O)C3=O [gambogic acid] |  |  | inhibited |  |  |  |  | 
6 | CC1(C)CCC(c2ccc(Cl)cc2)=C(CN2CCN(c3ccc(C(=O)NS(=O)(=O)c4ccc(N[C@H](CCN5CCOCC5)CSc5ccccc5)c(S(=O)(=O)C(F)(F)F)c4)cc3)CC2)C1 [navitoclax] |  |  | inhibited | inhibited | inhibited | inhibited | inhibited | inhibitory activity against the replication of replicon RNA transcribed from NOBEVR [1]: inhibitory activity; EC50 ([1]; Nobecovirus, 48 h, read-out: EC50, inhibition of the replication of replicon RNA transcribed from NOBEVR): 280 nM; CC50 at 48 h [6]: 18600 nM
7 | CC1(C)CCC(CN2CCN(c3ccc(C(=O)NS(=O)(=O)c4ccc(NCC5CCOCC5)c([N+](=O)[O-])c4)c(Oc4cnc5[nH]ccc5c4)c3)CC2)=C(c2ccc(Cl)cc2)C1 [venetoclax] |  |  | did not inhibit |  |  |  |  | 
8 | NC(=O)c1nc(F)c[nH]c1=O [favipiravir] | did not inhibit | did not inhibit |  |  |  |  |  | 
9 | Cn1cnc(Cn2c(=O)[nH]/c(=N\c3cc4cn(C)nc4cc3Cl)n(Cc3cc(F)c(F)cc3F)c2=O)n1.O=C(O)/C=C/C(=O)O [ensitrevir fumarate] | did not inhibit | did not inhibit |  |  |  |  |  | 
10 | CCC(CC)COC(=O)[C@H](C)N[P@](=O)(OC[C@H]1O[C@@](C#N)(c2ccc3c(N)ncnn23)[C@H](O)[C@@H]1O)Oc1ccccc1 [remdesivir] | did not inhibit | did not inhibit |  |  |  |  |  | 
11 | Cc1c(-c2ccc(N3CCc4cccc(C(=O)Nc5nc6ccccc6s5)c4C3)nc2C(=O)O)cnn1CC12CC3CC(CC(C3)C1)C2 [A-1331852] |  |  | inhibited | inhibited | inhibited | inhibited | inhibited | EC50 [7]: 1.46 nM; EC50 (HCV replicon RNA): 14.8 nM
12 | COc1cc2c(cc1O)[C@@H](Cc1ccc(O)c(Oc3ccc(C[C@@H]4c5cc(OC)c(OC)cc5CCN4C)cc3)c1)N(C)CC2 [daurisoline] |  |  |  |  |  |  |  | replicon RNA replication inhibitory activity against SC2R [3]: replicon RNA replication inhibitory activity; inhibitory activity against the replication of replicon RNA transcribed from NOBEVR [1]: strong inhibitory activity
